Reference: PubChem BioAssay AID190 (DTP/NCI, 2004)
Several values for one entry are separate records, joined by “and”; a condition that tells them apart may be missing. Equal values may be shown once. Toxic doses and inconclusive results are not listed.

Test system: AKR/Lw mice, AKR lymphoma ip, median survival T/C
Assay: NCI In Vivo Anticancer Drug Screen. Data for tumor model Lymphoma AKR (Transplanted) (intraperitoneal) in AKR/Lw mice
Settings: endpoint: median survival time, higher = longer survival
Experimental: The antitumor activity of compounds was measured in mice bearing transplantable tumors. Survival or tumor size were measured and the results are expressed as the measurement made in the treated group (T) divided by the measurement made in the vehicle treated control group (C). The tumor model used in this assay is Lymphoma AKR (Transplanted) (intraperitoneal) in AKR/Lw mice

[1] = dose: 400.0 mg/kg/injection, schedule: Q04DX003 (ip), vehicle: saline
[2] = dose: 12.5 mg/kg/injection, schedule: Q01DX001 (ip), vehicle: saline
[3] = dose: 25.0 mg/kg/injection, schedule: Q01DX001 (ip), vehicle: saline

SMILES: Nc1n[nH]c(N)n1
- T/C (dose: 37.5 mg/kg/injection, schedule: Q06HX012 (ip), vehicle: saline): 96 % of control
- T/C (dose: 37.5 mg/kg/injection, schedule: Q06HX016 (ip), vehicle: saline): 100 % of control
- T/C (dose: 50.0 mg/kg/injection, schedule: Q01DX010 (ip), vehicle: saline): 106 % of control
- T/C (dose: 75.0 mg/kg/injection, schedule: Q06HX008 (ip), vehicle: saline): 100 % of control
- T/C (dose: 75.0 mg/kg/injection, schedule: Q06HX012 (ip), vehicle: saline): 93 % of control
- T/C (dose: 75.0 mg/kg/injection, schedule: Q06HX016 (ip), vehicle: saline): 96 % of control
- T/C (dose: 100.0 mg/kg/injection, schedule: Q01DX010 (ip), vehicle: saline): 103 % of control
- T/C (dose: 125.0 mg/kg/injection, schedule: Q06HX004 (ip), vehicle: saline): 116 % of control
- T/C (dose: 150.0 mg/kg/injection, schedule: Q01DX009 (ip), vehicle: saline): 103 % of control
- T/C (dose: 150.0 mg/kg/injection, schedule: Q06HX008 (ip), vehicle: saline): 93 % of control
- T/C (dose: 150.0 mg/kg/injection, schedule: Q06HX012 (ip), vehicle: saline): 110 % of control
- T/C (dose: 150.0 mg/kg/injection, schedule: Q06HX016 (ip), vehicle: saline): 103 % of control
- T/C (dose: 175.0 mg/kg/injection, schedule: Q01DX010 (ip), vehicle: saline): 109 % of control
- T/C (dose: 200.0 mg/kg/injection, schedule: Q04DX003 (ip), vehicle: saline): 106 % of control
- T/C (dose: 250.0 mg/kg/injection, schedule: Q01DX010 (ip), vehicle: saline): 112 % of control
- T/C (dose: 250.0 mg/kg/injection, schedule: Q06HX004 (ip), vehicle: saline): 90 % of control and 92 % of control and 119 % of control
- T/C (dose: 300.0 mg/kg/injection, schedule: Q01DX009 (ip), vehicle: saline): 100 % of control
- T/C (dose: 300.0 mg/kg/injection, schedule: Q06HX008 (ip), vehicle: saline): 107 % of control
- T/C (dose: 300.0 mg/kg/injection, schedule: Q06HX012 (ip), vehicle: saline): 100 % of control
- T/C (dose: 375.0 mg/kg/injection, schedule: Q01DX010 (ip), vehicle: saline): 116 % of control
- T/C [1]: 110 % of control
- T/C (dose: 450.0 mg/kg/injection, schedule: Q06HX008 (ip), vehicle: saline): 107 % of control
- T/C (dose: 450.0 mg/kg/injection, schedule: Q06HX012 (ip), vehicle: saline): 92 % of control
- T/C (dose: 500.0 mg/kg/injection, schedule: Q06HX004 (ip), vehicle: saline): 88 % of control and 116 % of control
- T/C (dose: 530.0 mg/kg/injection, schedule: Q04DX003 (ip), vehicle: saline): 109 % of control
- T/C (dose: 675.0 mg/kg/injection, schedule: Q06HX012 (ip), vehicle: saline): 107 % of control
- T/C (dose: 800.0 mg/kg/injection, schedule: Q04DX003 (ip), vehicle: saline): 121 % of control
- T/C (dose: 1000.0 mg/kg/injection, schedule: Q06HX008 (ip), vehicle: saline): 92 % of control

SMILES: COC(=O)c1ccc(NCC(C)(C)N)cc1
- T/C [2]: 100 % of control
- T/C [3]: 94 % of control
- T/C (dose: 50.0 mg/kg/injection, schedule: Q01DX001 (ip), vehicle: saline): 88 % of control

SMILES: C[C@]12CCC(=O)C=C1CC[C@@H]1[C@@H]2[C@@H](O)C[C@@]2(C)[C@H]1CC[C@]2(O)C(=O)CO
- T/C (dose: 5.0 mg/kg/injection, schedule: Q01DX005 (sc), vehicle: steriod suspending solution): 117 % of control
- T/C (dose: 10.0 mg/kg/injection, schedule: Q01DX005 (sc), vehicle: steriod suspending solution): 106 % of control
- T/C (dose: 20.0 mg/kg/injection, schedule: Q01DX005 (sc), vehicle: steriod suspending solution): 106 % of control
- T/C (dose: 25.0 mg/kg/injection, schedule: Q01DX005 (sc), vehicle: steriod suspending solution): 94 % of control
- T/C (dose: 50.0 mg/kg/injection, schedule: Q01DX005 (sc), vehicle: steriod suspending solution): 107 % of control

SMILES: O=C(Nc1cccc(Cl)c1)Oc1ccc2ccccc2c1
- T/C (dose: 100.0 mg/kg/injection, schedule: Q01DX001 (ip), vehicle: saline with Tween-80): 100 % of control
- T/C (dose: 100.0 mg/kg/injection, schedule: Q01DX009 (ip), vehicle: saline): 92 % of control
- T/C (dose: 200.0 mg/kg/injection, schedule: Q01DX001 (ip), vehicle: saline with Tween-80): 100 % of control
- T/C (dose: 200.0 mg/kg/injection, schedule: Q01DX009 (ip), vehicle: saline): 112 % of control
- T/C (dose: 400.0 mg/kg/injection, schedule: Q01DX001 (ip), vehicle: saline with Tween-80): 105 % of control
- T/C [1]: 93 % of control

SMILES: Cc1c2ccncc2c(C)c2c1[nH]c1ccccc12
- T/C (dose: 1.2 mg/kg/injection, schedule: Q01DX009 (ip), vehicle: Klucel (hydroxypropylcellulose) (HPC)): 87 % of control
- T/C (dose: 1.25 mg/kg/injection, schedule: Q01DX009 (ip), vehicle: saline): 165 % of control
- T/C (dose: 1.5 mg/kg/injection, schedule: Q01DX009 (ip), vehicle: saline): 90 % of control and 118 % of control
- T/C (dose: 3.0 mg/kg/injection, schedule: Q01DX009 (ip), vehicle: saline): 104 % of control and 121 % of control
- T/C (dose: 5.0 mg/kg/injection, schedule: Q01DX009 (ip), vehicle: saline): 111 % of control
- T/C (dose: 6.0 mg/kg/injection, schedule: Q01DX009 (ip), vehicle: saline): 116 % of control
- T/C (dose: 7.5 mg/kg/injection, schedule: Q04DX003 (ip), vehicle: Klucel (hydroxypropylcellulose) (HPC)): 88 % of control
- T/C (dose: 7.5 mg/kg/injection, schedule: Q04DX003 (ip), vehicle: saline): 96 % of control
- T/C (dose: 10.0 mg/kg/injection, schedule: Q01DX009 (ip), vehicle: saline): 152 % of control
- T/C (dose: 12.5 mg/kg/injection, schedule: Q01DX001 (ip), vehicle: Klucel (hydroxypropylcellulose) (HPC)): 97 % of control
- T/C [2]: 124 % of control
- T/C (dose: 15.0 mg/kg/injection, schedule: Q01DX009 (ip), vehicle: Klucel (hydroxypropylcellulose) (HPC)): 103 % of control
- T/C (dose: 15.0 mg/kg/injection, schedule: Q04DX003 (ip), vehicle: Klucel (hydroxypropylcellulose) (HPC)): 119 % of control
- T/C (dose: 15.0 mg/kg/injection, schedule: Q04DX003 (ip), vehicle: saline): 112 % of control
- T/C (dose: 18.75 mg/kg/injection, schedule: Q04DX003 (ip), vehicle: saline): 111 % of control and 116 % of control and 117 % of control
- T/C (dose: 18.8 mg/kg/injection, schedule: Q04DX003 (ip), vehicle: Klucel (hydroxypropylcellulose) (HPC)): 105 % of control
- T/C (dose: 20.0 mg/kg/injection, schedule: Q01DX009 (ip), vehicle: Klucel (hydroxypropylcellulose) (HPC)): 86 % of control
- T/C (dose: 20.0 mg/kg/injection, schedule: Q01DX009 (ip), vehicle: saline): 111 % of control
- T/C (dose: 20.0 mg/kg/injection, schedule: Q04DX003 (ip), vehicle: Klucel (hydroxypropylcellulose) (HPC)): 119 % of control
- T/C (dose: 25.0 mg/kg/injection, schedule: Q01DX001 (ip), vehicle: Klucel (hydroxypropylcellulose) (HPC)): 123 % of control
- T/C [3]: 120 % of control
- T/C (dose: 25.0 mg/kg/injection, schedule: Q01DX005 (ip), vehicle: water): 263 % of control
- T/C (dose: 25.0 mg/kg/injection, schedule: Q04DX003 (ip), vehicle: Klucel (hydroxypropylcellulose) (HPC)): 153 % of control
- T/C (dose: 30.0 mg/kg/injection, schedule: Q04DX003 (ip), vehicle: Klucel (hydroxypropylcellulose) (HPC)): 104 % of control and 111 % of control
- T/C (dose: 35.0 mg/kg/injection, schedule: Q04DX003 (ip), vehicle: Klucel (hydroxypropylcellulose) (HPC)): 116 % of control
- T/C (dose: 50.0 mg/kg/injection, schedule: Q01DX001 (ip), vehicle: Klucel (hydroxypropylcellulose) (HPC)): 118 % of control
- T/C (dose: 50.0 mg/kg/injection, schedule: Q01DX005 (ip), vehicle: water): 197 % of control
- T/C (dose: 50.0 mg/kg/injection, schedule: Q04DX003 (ip), vehicle: Klucel (hydroxypropylcellulose) (HPC)): 153 % of control
- T/C (dose: 50.0 mg/kg/injection, schedule: Q04DX003 (ip), vehicle: water): 226 % of control
- T/C (dose: 75.0 mg/kg/injection, schedule: Q01DX001 (ip), vehicle: Klucel (hydroxypropylcellulose) (HPC)): 123 % of control
- T/C (dose: 100.0 mg/kg/injection, schedule: Q01DX001 (ip), vehicle: Klucel (hydroxypropylcellulose) (HPC)): 111 % of control and 121 % of control
- T/C (dose: 100.0 mg/kg/injection, schedule: Q04DX003 (ip), vehicle: Klucel (hydroxypropylcellulose) (HPC)): 107 % of control
- T/C (dose: 100.0 mg/kg/injection, schedule: Q04DX003 (ip), vehicle: saline): 100 % of control
- T/C (dose: 100.0 mg/kg/injection, schedule: Q04DX003 (ip), vehicle: water): 315 % of control
- T/C (dose: 150.0 mg/kg/injection, schedule: Q01DX001 (ip), vehicle: Klucel (hydroxypropylcellulose) (HPC)): 102 % of control
- T/C (dose: 150.0 mg/kg/injection, schedule: Q01DX001 (ip), vehicle: saline): 115 % of control
